Results taken from patent US20250361268A1, “NOVEL ANTI-INFLAMMATORY PEPTIDE AND USE THEREOF” (NOVACELL TECHNOLOGY INC., priority 2022, published 2025).
Peptide text beside a SMILES is read from it.

Key:
FPR1 = target: T1, FPR1 (Homo sapiens, UniProt P21462); test: Change in calcium activity by peptide, FPR1 activation effect; format: cell-based; conditions: calcium activity (Fura-2), graded per Table 3, read-out: EC50 for [Ca^2+] FPR1
T1 sequence (P21462 1-350): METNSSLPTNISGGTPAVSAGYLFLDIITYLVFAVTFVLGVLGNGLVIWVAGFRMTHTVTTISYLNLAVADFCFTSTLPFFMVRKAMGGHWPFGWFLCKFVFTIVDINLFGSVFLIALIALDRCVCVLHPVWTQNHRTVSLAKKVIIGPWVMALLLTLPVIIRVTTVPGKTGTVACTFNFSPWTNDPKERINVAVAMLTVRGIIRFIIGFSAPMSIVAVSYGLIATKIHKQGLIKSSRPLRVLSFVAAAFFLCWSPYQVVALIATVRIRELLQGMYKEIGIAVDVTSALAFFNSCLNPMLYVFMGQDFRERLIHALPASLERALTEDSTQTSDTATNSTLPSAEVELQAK
Protocol: The day before measuring calcium activity, the cells were prepared at 3×10^5 cells per well in a 96-well flat clear bottom black plate (Costar, #3603). The prepared cells were treated with a Fura-2 QBT calcium kit (component A; Molecular Devices, #8197) at the same volume per well. After incubation at 37° C. for 1 hour, the cells were incubated in a dark room at room temperature for 30 minutes. After the Fura-2-treated cells, the prepared peptide, and a dedicated tip were placed at each section of FlexStation 3 Multi-Mode Microplate Reader (Molecular Devices, #Flex3), changes in calcium activity caused by the peptides were measured using SoftMax Pro 7 Software (Molecular Devices, #FLEX3-INSTALL-OS). […]

FPR2 = target: T2, FPR2 (Homo sapiens, UniProt P25090); test: Change in calcium activity by peptide (Fura-2) in RBL cells overexpressing FPR2; format: cell-based; conditions: calcium activity (Fura-2), graded per Table 3, read-out: EC50 for [Ca^2+] FPR2
T2 construct: expressed in transfected cells; host or cells: RBL cells (RBL-FPR2)
T2 sequence (P25090 1-351): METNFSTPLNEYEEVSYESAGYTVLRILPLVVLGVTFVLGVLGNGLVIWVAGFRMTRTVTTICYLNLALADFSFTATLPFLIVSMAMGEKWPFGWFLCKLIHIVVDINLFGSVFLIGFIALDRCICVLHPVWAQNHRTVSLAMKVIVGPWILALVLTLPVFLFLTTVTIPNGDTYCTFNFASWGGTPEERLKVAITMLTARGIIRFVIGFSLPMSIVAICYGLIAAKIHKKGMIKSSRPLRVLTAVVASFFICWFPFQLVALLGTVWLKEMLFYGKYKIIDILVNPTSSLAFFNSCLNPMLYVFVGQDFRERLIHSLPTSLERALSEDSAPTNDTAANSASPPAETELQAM
Protocol: The present inventors observed changes in calcium ion permeability to confirm whether the immunomodulatory peptide candidates prepared according to one example of the present invention activate the immune function of a living organism. Specifically, the concentration of calcium ions in cells was measured to confirm whether the peptides activate FPR2.
A peptide dissolved in water or 50% DMSO at a concentration of 0.5 mM was prepared by diluting it to an appropriate concentration in HBSS (Sigma, #55037C)+20 mM HEPES buffer.
In this experiment, the cells were cultured in DMEM (Lonza, #BE12-604F) containing 10% fetal bovine serum (FBS) and 1% penicillin-streptomycin under conditions of 37° C. and 5% CO2.
The day before measuring calcium activity, the cells were prepared at 3×10^5 cells per well in a 96-well flat clear bottom black plate (Costar, #3603). The prepared cells were treated with a Fura-2 QBT calcium kit (component A; Molecular Devices, #8197) at the same volume per well. After incubation at 37° C. for 1 hour, the cells were incubated in a dark room at room temperature for 30 minutes. After the Fura-2-treated cells, the prepared peptide, and a dedicated tip were placed at each section of FlexStation 3 Multi-Mode Microplate Reader (Molecular Devices, #Flex3), changes in calcium activity caused by the peptides were measured using SoftMax Pro 7 Software (Molecular Devices, #FLEX3-INSTALL-OS).

| EC50 (FPR1) | EC50 (FPR2) | SMILES |
| --- | --- | --- |
| > 10000 nM | < 10 nM | CSCC[C@@H](NC(=O)[C@@H](NC(=O)[C@H](CCCCN)NC(=O)[C@H](Cc1ccc(O)cc1)NC(=O)[C@H](CCCNC(=N)N)NC(=O)[C@H](Cc1c[nH]c2ccccc12)NC(=O)[C@@H](N)CCCNC(=N)N)C(C)C)C(N)=O [Peptide 1] (HELM PEPTIDE1{R.W.R.Y.K.V.[dM].[am]}$$$$V2.0) |
| 1000 to 10000 nM | 11 to 100 nM | CCCCCCCC(=O)N[C@@H](CCCNC(=N)N)C(=O)N[C@@H](Cc1c[nH]c2ccccc12)C(=O)N[C@@H](CCCNC(=N)N)C(=O)N[C@@H](Cc1ccc(O)cc1)C(=O)N[C@@H](CCCCN)C(=O)N[C@H](C(=O)N[C@H](CCSC)C(N)=O)C(C)C [Peptide 2] (HELM PEPTIDE1{[CCCCCCCC(=O)[*:2]].R.W.R.Y.K.V.[dM].[am]}$$$$V2.0) |
| > 10000 nM | < 10 nM | CSCC[C@@H](NC(=O)[C@@H](NC(=O)[C@H](CCCCN)NC(=O)[C@H](Cc1ccc(O)cc1)NC(=O)[C@H](CCCNC(=N)N)NC(=O)[C@@H](N)Cc1c[nH]c2ccccc12)C(C)C)C(N)=O [Peptide 3] (HELM PEPTIDE1{W.R.Y.K.V.[dM].[am]}$$$$V2.0) |
| > 10000 nM | < 10 nM | CSCC[C@@H](NC(=O)[C@@H](NC(=O)[C@H](CCCCN)NC(=O)[C@H](Cc1ccc(O)cc1)NC(=O)[C@H](CCCCN)NC(=O)[C@H](Cc1c[nH]c2ccccc12)NC(=O)[C@H](CCCCN)NC(C)=O)C(C)C)C(N)=O [Peptide 4] (HELM PEPTIDE1{[ac].K.W.K.Y.K.V.[dM].[am]}$$$$V2.0) |
| > 10000 nM | < 10 nM | CSCC[C@H](NC(=O)[C@@H](N)CCCNC(=N)N)C(=O)N[C@@H](CCCNC(=N)N)C(=O)N[C@@H](Cc1ccc(O)cc1)C(=O)N[C@@H](CCCCN)C(=O)N[C@H](C(=O)N[C@H](CCSC)C(N)=O)C(C)C [Peptide 5] (HELM PEPTIDE1{R.M.R.Y.K.V.[dM].[am]}$$$$V2.0) |
| > 10000 nM | < 10 nM | CCCC(=O)N[C@@H](CCCNC(=N)N)C(=O)N[C@@H](CCSC)C(=O)N[C@@H](CCCNC(=N)N)C(=O)N[C@@H](Cc1ccc(O)cc1)C(=O)N[C@@H](CCCCN)C(=O)N[C@H](C(=O)N[C@H](CCSC)C(N)=O)C(C)C [Peptide 7] (HELM PEPTIDE1{[CCCC(=O)[*:2]].R.M.R.Y.K.V.[dM].[am]}$$$$V2.0) |
| > 10000 nM | 11 to 100 nM | CCCCCCCC(=O)N[C@@H](CCCNC(=N)N)C(=O)N[C@@H](CCSC)C(=O)N[C@@H](CCCNC(=N)N)C(=O)N[C@@H](Cc1ccc(O)cc1)C(=O)N[C@@H](CCCCN)C(=O)N[C@H](C(=O)N[C@H](CCSC)C(N)=O)C(C)C [Peptide 8] (HELM PEPTIDE1{[CCCCCCCC(=O)[*:2]].R.M.R.Y.K.V.[dM].[am]}$$$$V2.0) |
| > 10000 nM | 11 to 100 nM | CSCC[C@H](NC(=O)[C@@H](N)CCCCN)C(=O)N[C@@H](CCCCN)C(=O)N[C@@H](Cc1ccc(O)cc1)C(=O)N[C@@H](CCCCN)C(=O)N[C@H](C(=O)N[C@H](CCSC)C(N)=O)C(C)C [Peptide 9] (HELM PEPTIDE1{K.M.K.Y.K.V.[dM].[am]}$$$$V2.0) |
| > 10000 nM | 11 to 100 nM | CSCC[C@H](NC(=O)[C@H](CCCCN)NC(C)=O)C(=O)N[C@@H](CCCCN)C(=O)N[C@@H](Cc1ccc(O)cc1)C(=O)N[C@@H](CCCCN)C(=O)N[C@H](C(=O)N[C@H](CCSC)C(N)=O)C(C)C [Peptide 10] (HELM PEPTIDE1{[ac].K.M.K.Y.K.V.[dM].[am]}$$$$V2.0) |
| > 10000 nM | < 10 nM | CCCC(=O)N[C@@H](CCCCN)C(=O)N[C@@H](CCSC)C(=O)N[C@@H](CCCCN)C(=O)N[C@@H](Cc1ccc(O)cc1)C(=O)N[C@@H](CCCCN)C(=O)N[C@H](C(=O)N[C@H](CCSC)C(N)=O)C(C)C [Peptide 11] (HELM PEPTIDE1{[CCCC(=O)[*:2]].K.M.K.Y.K.V.[dM].[am]}$$$$V2.0) |
| > 10000 nM | 11 to 100 nM | CCCCCCCC(=O)N[C@@H](CCCCN)C(=O)N[C@@H](CCSC)C(=O)N[C@@H](CCCCN)C(=O)N[C@@H](Cc1ccc(O)cc1)C(=O)N[C@@H](CCCCN)C(=O)N[C@H](C(=O)N[C@H](CCSC)C(N)=O)C(C)C [Peptide 12] (HELM PEPTIDE1{[CCCCCCCC(=O)[*:2]].K.M.K.Y.K.V.[dM].[am]}$$$$V2.0) |
| > 10000 nM | < 10 nM | CSCC[C@H](N)C(=O)N[C@@H](CCCNC(=N)N)C(=O)N[C@@H](Cc1ccc(O)cc1)C(=O)N[C@@H](CCCCN)C(=O)N[C@H](C(=O)N[C@H](CCSC)C(N)=O)C(C)C [Peptide 13] (HELM PEPTIDE1{M.R.Y.K.V.[dM].[am]}$$$$V2.0) |
| 1000 to 10000 nM | < 10 nM | CSCC[C@H](NC(C)=O)C(=O)N[C@@H](CCCNC(=N)N)C(=O)N[C@@H](Cc1ccc(O)cc1)C(=O)N[C@@H](CCCCN)C(=O)N[C@H](C(=O)N[C@H](CCSC)C(N)=O)C(C)C [Peptide 14] (HELM PEPTIDE1{[ac].M.R.Y.K.V.[dM].[am]}$$$$V2.0) |
| > 10000 nM | < 10 nM | CCCC(=O)N[C@@H](CCSC)C(=O)N[C@@H](CCCNC(=N)N)C(=O)N[C@@H](Cc1ccc(O)cc1)C(=O)N[C@@H](CCCCN)C(=O)N[C@H](C(=O)N[C@H](CCSC)C(N)=O)C(C)C [Peptide 15] (HELM PEPTIDE1{[CCCC(=O)[*:2]].M.R.Y.K.V.[dM].[am]}$$$$V2.0) |
| > 10000 nM | 11 to 100 nM | CCCCCCCC(=O)N[C@@H](CCSC)C(=O)N[C@@H](CCCNC(=N)N)C(=O)N[C@@H](Cc1ccc(O)cc1)C(=O)N[C@@H](CCCCN)C(=O)N[C@H](C(=O)N[C@H](CCSC)C(N)=O)C(C)C [Peptide 16] (HELM PEPTIDE1{[CCCCCCCC(=O)[*:2]].M.R.Y.K.V.[dM].[am]}$$$$V2.0) |
| > 10000 nM | < 10 nM | CSCC[C@H](NC(=O)[C@@H](N)Cc1c[nH]cn1)C(=O)N[C@@H](CCCCN)C(=O)N[C@@H](Cc1ccc(O)cc1)C(=O)N[C@@H](CCCCN)C(=O)N[C@H](C(=O)N[C@H](CCSC)C(N)=O)C(C)C [Peptide 21] (HELM PEPTIDE1{H.M.K.Y.K.V.[dM].[am]}$$$$V2.0) |
| > 10000 nM | < 10 nM | CSCC[C@H](NC(=O)[C@H](Cc1c[nH]cn1)NC(C)=O)C(=O)N[C@@H](CCCCN)C(=O)N[C@@H](Cc1ccc(O)cc1)C(=O)N[C@@H](CCCCN)C(=O)N[C@H](C(=O)N[C@H](CCSC)C(N)=O)C(C)C [Peptide 22] (HELM PEPTIDE1{[ac].H.M.K.Y.K.V.[dM].[am]}$$$$V2.0) |
| > 10000 nM | < 10 nM | CCCC(=O)N[C@@H](Cc1c[nH]cn1)C(=O)N[C@@H](CCSC)C(=O)N[C@@H](CCCCN)C(=O)N[C@@H](Cc1ccc(O)cc1)C(=O)N[C@@H](CCCCN)C(=O)N[C@H](C(=O)N[C@H](CCSC)C(N)=O)C(C)C [Peptide 23] (HELM PEPTIDE1{[CCCC(=O)[*:2]].H.M.K.Y.K.V.[dM].[am]}$$$$V2.0) |
| > 10000 nM | < 10 nM | CCCCCCCC(=O)N[C@@H](Cc1c[nH]cn1)C(=O)N[C@@H](CCSC)C(=O)N[C@@H](CCCCN)C(=O)N[C@@H](Cc1ccc(O)cc1)C(=O)N[C@@H](CCCCN)C(=O)N[C@H](C(=O)N[C@H](CCSC)C(N)=O)C(C)C [Peptide 24] (HELM PEPTIDE1{[CCCCCCCC(=O)[*:2]].H.M.K.Y.K.V.[dM].[am]}$$$$V2.0) |
| > 10000 nM | < 10 nM | CSCC[C@H](NC(=O)[C@@H]1CCCN1)C(=O)N[C@@H](CCCCN)C(=O)N[C@@H](Cc1ccc(O)cc1)C(=O)N[C@@H](CCCCN)C(=O)N[C@H](C(=O)N[C@H](CCSC)C(N)=O)C(C)C [Peptide 25] (HELM PEPTIDE1{P.M.K.Y.K.V.[dM].[am]}$$$$V2.0) |
